Measurements: patent publication US10577363B2, “Substituted piperidine compounds” (EPIZYME, INC., priority 2014, dated 2020)

Key:
SMYD3 [1] = target: T1, SMYD3 (Homo sapiens (Human), UniProt Q9H7B4); experiment: SMYD3 biochemical assay (SPA, 3H-SAM methylation of MEKK2 protein substrate); conditions: read-out: SMYD3 Biochem IC50 (μM)*
Summary of the method: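 Tritium incorporation into GST-MEKK2 is counted by scintillation proximity after citric acid bead capture. Native human SMYD3 is preincubated with test compound for 30 min at room temperature at pH 8.0 (Tris-Cl, TCEP, BSG, Tween 20) before 3H-SAM and substrate are added; cold SAM at 100 uM final stops turnover.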

SMYD3 [2] = target: T1, SMYD3; experiment: SMYD3 cell assay (Trimethyl-MEKK2 In-Cell Western in 293T/17 cells); assay type: cell-based; conditions: 293T/17 cells; read-out: SMYD3 Cell IC50 (μM)*
Summary of the method: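 In-Cell Western ratio of trimethyl-Lys260 MEKK2 to anti-flag signal; percent inhibition from DMSO and maximum-inhibition controls, IC50 by non-linear regression, triplicates.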

T1 sequence (Q9H7B4 whole entry): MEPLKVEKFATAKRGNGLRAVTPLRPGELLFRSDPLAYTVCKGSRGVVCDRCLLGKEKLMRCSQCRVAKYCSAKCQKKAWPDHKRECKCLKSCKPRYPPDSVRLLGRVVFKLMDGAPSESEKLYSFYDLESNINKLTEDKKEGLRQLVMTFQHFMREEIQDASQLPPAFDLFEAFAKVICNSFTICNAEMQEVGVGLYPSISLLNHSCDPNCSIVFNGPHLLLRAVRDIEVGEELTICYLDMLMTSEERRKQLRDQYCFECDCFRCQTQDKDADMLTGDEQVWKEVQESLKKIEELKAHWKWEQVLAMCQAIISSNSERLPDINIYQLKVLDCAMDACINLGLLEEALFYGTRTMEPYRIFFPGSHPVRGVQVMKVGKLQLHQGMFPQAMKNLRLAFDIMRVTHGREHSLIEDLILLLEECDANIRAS

SMILES | IC50 (SMYD3 [1]) [µM] | IC50 (SMYD3 [2]) [µM]
C[C@@H]1C[C@H](NC(=O)c2cc(C3CC3)on2)CCN1S(=O)(=O)CCc1ccccc1 [compound 295, 5-cyclopropyl-N-((2R,4R)-2-methyl-1-(phenethylsulfonyl)piperidin-4-yl)isoxazole-3-carboxamide] | > 10 | > 40
N[C@H]1CC[C@H](C(=O)N2CC[C@@H](NC(=O)c3cc(C4CC4)on3)C[C@H]2Cc2ccccc2)CC1 [compound 309, N-((2R,4R)-1-((1r,4R)-4-aminocyclohexane-1-carbonyl)-2-benzylpiperidin-4-yl)-5-cyclopropylisoxazole-3-carboxamide] | 1.18 | 16.8
N[C@H]1CC[C@H](C(=O)N2CC[C@H](NC(=O)c3cc(C4CC4)on3)C[C@@H]2Cc2ccccc2)CC1 [compound 310, N-((2S,4S)-1-((1r,4S)-4-aminocyclohexane-1-carbonyl)-2-benzylpiperidin-4-yl)-5-cyclopropylisoxazole-3-carboxamide] | 0.733 | 8.1
C[C@@H]1C[C@H](NC(=O)c2cc(C3CC3)on2)CCN1C(=O)CC(CN)c1ccccc1 (stereo partly drawn) [compound 314, N-((2R,4R)-1-(4-amino-3-phenylbutanoyl)-2-methylpiperidin-4-yl)-5-cyclopropylisoxazole-3-carboxamide] | 4.73 | > 40
C[C@H]1C[C@@H](NC(=O)c2cc(C3CC3)on2)CCN1S(=O)(=O)N(C)C [compound 315, 5-cyclopropyl-N-((2S,4S)-1-(N,N-dimethylsulfamoyl)-2-methylpiperidin-4-yl)isoxazole-3-carboxamide] | 1.33 | 4.84
CCCCS(=O)(=O)N1CC[C@H](NC(=O)c2cc(C3CC3)on2)C[C@@H]1C [compound 316, N-((2S,4S)-1-(butylsulfonyl)-2-methylpiperidin-4-yl)-5-cyclopropylisoxazole-3-carboxamide] | 0.237 | 0.782
C[C@H]1C[C@@H](NC(=O)c2cc(C3CC3)on2)CCN1S(=O)(=O)c1cccnc1 [compound 317, 5-cyclopropyl-N-((2S,4S)-2-methyl-1-(pyridin-3-ylsulfonyl)piperidin-4-yl)isoxazole-3-carboxamide] | 0.686 | 4.11
C[C@H]1C[C@@H](NC(=O)c2cc(C3CC3)on2)CCN1S(=O)(=O)Cc1cccnc1 [compound 319, 5-cyclopropyl-N-((2S,4S)-2-methyl-1-((pyridin-3-ylmethyl)sulfonyl)piperidin-4-yl)isoxazole-3-carboxamide] | 1.43 | 4.53
C[C@@H]1C[C@H](NC(=O)c2cc(C3CC3)on2)CCN1S(=O)(=O)N(C)C [compound 328, 5-cyclopropyl-N-((2R,4R)-1-(N,N-dimethylsulfamoyl)-2-methylpiperidin-4-yl)isoxazole-3-carboxamide] | 6.91 | 15.2
C[C@@H]1C[C@H](NC(=O)c2cc(C3CC3)on2)CCN1S(=O)(=O)Cc1cccnc1 [compound 329, 5-cyclopropyl-N-((2R,4R)-2-methyl-1-((pyridin-3-ylmethyl)sulfonyl)piperidin-4-yl)isoxazole-3-carboxamide] | 6.42 | 20
CC(=O)Nc1ccc(S(=O)(=O)N2CC[C@@H](NC(=O)c3cc(C4CC4)on3)C[C@H]2C)cc1 [compound 330, N-((2R,4R)-1-((4-acetamidophenyl)sulfonyl)-2-methylpiperidin-4-yl)-5-cyclopropylisoxazole-3-carboxamide] | > 10 | 29.3
CCOC(=O)C1CN(S(=O)(=O)CCCN)CCC1NC(=O)c1cc(C2CC2)on1 (centres unmarked) [compound 331, ethyl 1-((3-aminopropyl)sulfonyl)-4-(5-cyclopropylisoxazole-3-carboxamido)piperidine-3-carboxylate] | 0.147 | 2.31
NCCCC(=O)N1CC[C@@H](NC(=O)c2cc(C3CC3)on2)C[C@H]1Cc1ccccc1 [compound 333, N-((2R,4R)-1-(4-aminobutanoyl)-2-benzylpiperidin-4-yl)-5-cyclopropylisoxazole-3-carboxamide] | > 10 | > 40
